Measured values taken from the supplement of paper PMC13207355.
Counter-ions that a name gives are not always drawn.

Experiments:
Settings in all cases: exposure time: 72 h
[1] = test system: E13 (patient-derived glioblastoma stem cells of classical subtype); test: surviving fraction (nuclei count normalised to DMSO); higher = more cells surviving (less toxic)
[2] = test system: E21 (patient-derived glioblastoma stem cells of mesenchymal subtype); test: as above
[3] = test system: E28 (patient-derived glioblastoma stem cells of classical subtype); test: as above
[4] = test system: E31 (patient-derived glioblastoma stem cells of proneural subtype); test: as above
[5] = test system: E34 (patient-derived glioblastoma stem cells of proneural subtype); test: as above
[6] = test system: E57 (patient-derived glioblastoma stem cells of mesenchymal subtype); test: as above
[7] = test system: FT3469 (normal neural stem cell line); test: as above
[8] = test system: E13; test: phenotypic distance (Euclidean, principal components) from DMSO controls (arbitrary units); higher = stronger morphological change
[9] = test system: E21; test: as above
[10] = test system: E28; test: as above
[11] = test system: E31; test: as above
[12] = test system: E34; test: as above
[13] = test system: E57; test: as above
[14] = test system: FT3469; test: as above
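For phenotypic distance (Euclidean, principal components) from DMSO controls in this document: cell Painting imaging in 384-well plates, CellProfiler features reduced to at least 20 principal components, Euclidean distance versus same-plate DMSO vehicle wells (0.1% v/v), median over six images per well.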
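For surviving fraction (nuclei count normalised to DMSO) in this document: nuclei counted by high-content imaging of Hoechst-stained cells in laminin-coated 384-well plates, relative to 0.1% DMSO vehicle wells, with staurosporine as cell-death control.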

COc1cccc2c1C(=O)c1c(O)c3c(c(O)c1C2=O)C[C@@](O)(C(C)=O)C[C@@H]3O[C@H]1C[C@H](N)[C@H](O)[C@H](C)O1 [Daunorubicin hydrochloride]
Settings	phenotypic distance	surviving fraction
[1], 4.1 nM	–	0.54
[1], 12.3 nM	–	0.512
[1], 37 nM	–	0.342
[1], 111.1 nM	–	0.381
[1], 333.3 nM	–	0.216
[1], 1000 nM	–	0.0373
[1], 3000 nM	–	0.0142
[2], 4.1 nM	–	0.844
[2], 12.3 nM	–	0.597
[2], 37 nM	–	0.451
[2], 111.1 nM	–	0.343
[2], 333.3 nM	–	0.151
[2], 1000 nM	–	0.0632
[2], 3000 nM	–	0.055
[3], 4.1 nM	–	0.408
[3], 12.3 nM	–	0.419
[3], 37 nM	–	0.339
[3], 111.1 nM	–	0.251
[3], 333.3 nM	–	0.185
[3], 1000 nM	–	0.187
[3], 3000 nM	–	0.11
[4], 4.1 nM	–	0.51
[4], 12.3 nM	–	0.293
[4], 37 nM	–	0.266
[4], 111.1 nM	–	0.134
[4], 333.3 nM	–	0.0818
[4], 1000 nM	–	0.0315
[4], 3000 nM	–	0.0944
[5], 4.1 nM	–	0.644
[5], 12.3 nM	–	0.611
[5], 37 nM	–	0.591
[5], 111.1 nM	–	0.445
[5], 333.3 nM	–	0.471
[5], 1000 nM	–	0.259
[5], 3000 nM	–	0.0925
[6], 4.1 nM	–	0.583
[6], 12.3 nM	–	0.325
[6], 37 nM	–	0.194
[6], 111.1 nM	–	0.178
[6], 333.3 nM	–	0.149
[6], 1000 nM	–	0.0932
[6], 3000 nM	–	0.0598
[7], 4.1 nM	–	0.644
[7], 12.3 nM	–	0.625
[7], 37 nM	–	0.487
[7], 111.1 nM	–	0.606
[7], 333.3 nM	–	0.593
[7], 1000 nM	–	0.0798
[7], 3000 nM	–	0.0266
[8], 4.1 nM	3.33	–
[8], 12.3 nM	4.36	–
[8], 37 nM	6.02	–
[8], 111.1 nM	5.64	–
[8], 333.3 nM	5.87	–
[8], 1000 nM	7.81	–
[8], 3000 nM	5.88	–
[9], 4.1 nM	1.95	–
[9], 12.3 nM	4.33	–
[9], 37 nM	6.78	–
[9], 111.1 nM	5.96	–
[9], 333.3 nM	5.7	–
[9], 1000 nM	6.37	–
[9], 3000 nM	6.06	–
[10], 4.1 nM	1.76	–
[10], 12.3 nM	2.56	–
[10], 37 nM	2.56	–
[10], 111.1 nM	3.09	–
[10], 333.3 nM	3.78	–
[10], 1000 nM	3.13	–
[10], 3000 nM	5.54	–
[11], 4.1 nM	2.77	–
[11], 12.3 nM	2.46	–
[11], 37 nM	2.46	–
[11], 111.1 nM	4.45	–
[11], 333.3 nM	4.56	–
[11], 1000 nM	7.33	–
[11], 3000 nM	5.46	–
[12], 4.1 nM	1.67	–
[12], 12.3 nM	4.29	–
[12], 37 nM	4.68	–
[12], 111.1 nM	3.18	–
[12], 333.3 nM	2.84	–
[12], 1000 nM	4.23	–
[12], 3000 nM	3.57	–
[13], 4.1 nM	3.27	–
[13], 12.3 nM	6.2	–
[13], 37 nM	9.2	–
[13], 111.1 nM	7.86	–
[13], 333.3 nM	6.42	–
[13], 1000 nM	6.83	–
[13], 3000 nM	7.19	–
[14], 4.1 nM	1.72	–
[14], 12.3 nM	1.77	–
[14], 37 nM	2.11	–
[14], 111.1 nM	2.17	–
[14], 333.3 nM	2.57	–
[14], 1000 nM	4.08	–
[14], 3000 nM	7.48	–

C[C@]12CC[C@H](O)C[C@H]1CC[C@@H]1[C@@H]2C[C@@H](O)[C@]2(C)[C@@H](C3=CC(=O)OC3)CC[C@]12O [Digoxigenin]
Settings	phenotypic distance	surviving fraction
[1], 4.1 nM	–	0.965
[1], 12.3 nM	–	1.05
[1], 37 nM	–	0.962
[1], 111.1 nM	–	0.89
[1], 333.3 nM	–	0.662
[1], 1000 nM	–	0.426
[1], 3000 nM	–	0.354
[2], 4.1 nM	–	0.996
[2], 12.3 nM	–	0.951
[2], 37 nM	–	0.891
[2], 111.1 nM	–	0.887
[2], 333.3 nM	–	0.582
[2], 1000 nM	–	0.473
[2], 3000 nM	–	0.331
[3], 4.1 nM	–	1.01
[3], 12.3 nM	–	1.11
[3], 37 nM	–	0.883
[3], 111.1 nM	–	0.991
[3], 333.3 nM	–	1.02
[3], 1000 nM	–	0.998
[3], 3000 nM	–	0.537
[4], 4.1 nM	–	1.01
[4], 12.3 nM	–	0.832
[4], 37 nM	–	0.916
[4], 111.1 nM	–	0.996
[4], 333.3 nM	–	0.946
[4], 1000 nM	–	0.603
[4], 3000 nM	–	0.348
[5], 4.1 nM	–	0.86
[5], 12.3 nM	–	0.942
[5], 37 nM	–	0.861
[5], 111.1 nM	–	1.04
[5], 333.3 nM	–	0.767
[5], 1000 nM	–	0.63
[5], 3000 nM	–	0.568
[6], 4.1 nM	–	0.942
[6], 12.3 nM	–	0.969
[6], 37 nM	–	1.05
[6], 111.1 nM	–	0.975
[6], 333.3 nM	–	0.663
[6], 1000 nM	–	0.346
[6], 3000 nM	–	0.238
[7], 4.1 nM	–	0.774
[7], 12.3 nM	–	0.984
[7], 37 nM	–	1.03
[7], 111.1 nM	–	0.968
[7], 333.3 nM	–	0.801
[7], 1000 nM	–	0.652
[7], 3000 nM	–	0.62
[8], 4.1 nM	0.193	–
[8], 12.3 nM	0.571	–
[8], 37 nM	0.503	–
[8], 111.1 nM	0.911	–
[8], 333.3 nM	2.63	–
[8], 1000 nM	3.73	–
[8], 3000 nM	4.86	–
[9], 4.1 nM	0.486	–
[9], 12.3 nM	0.815	–
[9], 37 nM	0.94	–
[9], 111.1 nM	1.64	–
[9], 333.3 nM	3.18	–
[9], 1000 nM	3.95	–
[9], 3000 nM	6.35	–
[10], 4.1 nM	0.383	–
[10], 12.3 nM	0.587	–
[10], 37 nM	0.46	–
[10], 111.1 nM	0.569	–
[10], 333.3 nM	0.59	–
[10], 1000 nM	1.04	–
[10], 3000 nM	2.24	–
[11], 4.1 nM	0.558	–
[11], 12.3 nM	0.764	–
[11], 37 nM	0.809	–
[11], 111.1 nM	0.828	–
[11], 333.3 nM	1.83	–
[11], 1000 nM	3.63	–
[11], 3000 nM	4.82	–
[12], 4.1 nM	0.591	–
[12], 12.3 nM	0.506	–
[12], 37 nM	0.531	–
[12], 111.1 nM	0.98	–
[12], 333.3 nM	1.57	–
[12], 1000 nM	3.22	–
[12], 3000 nM	4.52	–
[13], 4.1 nM	0.552	–
[13], 12.3 nM	1.14	–
[13], 37 nM	0.391	–
[13], 111.1 nM	0.908	–
[13], 333.3 nM	3.27	–
[13], 1000 nM	4.63	–
[13], 3000 nM	6.24	–
[14], 4.1 nM	1	–
[14], 12.3 nM	1.82	–
[14], 37 nM	0.883	–
[14], 111.1 nM	1.27	–
[14], 333.3 nM	2.84	–
[14], 1000 nM	4.38	–
[14], 3000 nM	3.34	–
